Results on 22 compounds are retold here after US20260297080A1, “BICYCLIC COMPOUNDS AS CDK INHIBITORS” (BeOne Medicines I GmbH, priority 2022, published 2026).

The target in one experiment is CDK2/Cyclin E1 (Homo sapiens, UniProt P24941). Put plainly: CDK2/Cyclin E1 Biochemical Assay (TR-FRET), 0.060 mM ATP. The conditions noted are these: 0.15 μM Rb (Ser780)-biotin substrate, pH7.0, 60 min preincubation, 120 min reaction, room temperature. Summed up:
(§1)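 Enzyme + cpd (0–10 μM), 60 min RT; add ATP + 0.15 μM Rb(Ser780)-biotin, 120 min RT; 50 mM HEPES pH 7.0, 50 mM MgCl2, 1 mM DTT, 0.1 mM orthovanadate. Stop/detect with Eu anti-pRb + SA-XL665, 60 min; ratio 665/620 nm; IC50 by 4PL fit.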
On the technique in general: TR-FRET usually uses a lanthanide donor and a delayed reading to cut background.

The target in a further experiment is CDK1/Cyclin B1 (Homo sapiens, UniProt P06493). The experiment in a line: CDK1/Cyclin B1 Biochemical Assay (TR-FRET), 0.015 mM ATP. The conditions noted are these: 0.15 μM Rb (Ser780)-biotin substrate, pH7.0, 60 min preincubation, 120 min reaction, room temperature. Summed up: as §1
Sequence of CDK1/Cyclin B1 (P06493 whole entry): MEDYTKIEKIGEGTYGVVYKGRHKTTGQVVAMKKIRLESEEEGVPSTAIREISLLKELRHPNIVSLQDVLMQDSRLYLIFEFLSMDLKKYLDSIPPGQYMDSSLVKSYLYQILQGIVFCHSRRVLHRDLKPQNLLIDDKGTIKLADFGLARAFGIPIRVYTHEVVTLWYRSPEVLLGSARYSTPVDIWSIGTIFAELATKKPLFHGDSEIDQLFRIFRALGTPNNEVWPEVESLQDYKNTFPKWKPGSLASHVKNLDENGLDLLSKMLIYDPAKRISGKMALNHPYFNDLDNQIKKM
Sequence of CDK1/Cyclin B1 (P14635 whole entry partner): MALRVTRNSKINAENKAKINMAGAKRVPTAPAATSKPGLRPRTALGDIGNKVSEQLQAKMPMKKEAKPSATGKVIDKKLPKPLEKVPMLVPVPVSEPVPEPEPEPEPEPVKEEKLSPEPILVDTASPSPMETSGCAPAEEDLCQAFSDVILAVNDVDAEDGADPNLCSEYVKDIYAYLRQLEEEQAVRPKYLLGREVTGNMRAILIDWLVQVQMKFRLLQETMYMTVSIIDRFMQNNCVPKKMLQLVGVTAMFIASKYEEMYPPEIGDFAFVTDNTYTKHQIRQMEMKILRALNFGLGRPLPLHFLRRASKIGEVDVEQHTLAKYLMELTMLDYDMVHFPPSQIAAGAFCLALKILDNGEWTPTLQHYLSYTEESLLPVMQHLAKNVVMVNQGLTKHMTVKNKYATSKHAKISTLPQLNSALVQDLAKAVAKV

Turning to `Cc1cc2c(cc1Nc1cc([C@@H]3CC[C@H](OC(=O)NC(C)C)C3)[nH]n1)CS(=O)(=O)N2` (relative stereo) [Example 241, 3-(3-((6-methyl-2,2-dioxido-1,3-dihydrobenzo[c]isothiazol-5-yl)amino)-1H-pyrazol-5-yl)cyclopentyl isopropylcarbamate], the figures for the IC50 on CDK2/Cyclin E1 and on CDK1/Cyclin B1 were 0.128 µM and 4.47 µM, respectively.

With `Cc1cc(Nc2cc([C@@H]3CC[C@H](OC(=O)NC(C)C)C3)[nH]n2)cc2c1NS(=O)(=O)C2` (relative stereo) [Example 242, cis-3-(3-((7-methyl-2,2-dioxido-1,3-dihydrobenzo[c]isothiazol-5-yl)amino)-1H-pyrazol-5-yl)cyclopentyl isopropylcarbamate], the IC50 (in general, the concentration that gives 50% inhibition) at CDK2/Cyclin E1 worked out at 0.0051 µM; on CDK1/Cyclin B1, 0.07 µM.

For `Cc1c(Nc2cc([C@@H]3CC[C@H](OC(=O)NC(C)C)C3)[nH]n2)ccc2c1CS(=O)(=O)N2C` (relative stereo) [Example 243, cis-3-(3-((1,4-dimethyl-2,2-dioxido-1,3-dihydrobenzo[c]isothiazol-5-yl)amino)-1H-pyrazol-5-yl)cyclopentyl isopropylcarbamate], the half-maximal inhibitory concentration (IC50) at CDK2/Cyclin E1 was found to be 0.037 µM; on CDK1/Cyclin B1, 0.978 µM.

As for `Cc1cc2c(cc1Nc1cc([C@@H]3CC[C@H](OC(=O)NC(C)C)C3)[nH]n1)CS(=O)(=O)N2C` (relative stereo) [Example 244, cis-3-(3-((1,6-dimethyl-2,2-dioxido-1,3-dihydrobenzo[c]isothiazol-5-yl)amino)-1H-pyrazol-5-yl)cyclopentyl isopropylcarbamate], the figures for the IC50 against CDK2/Cyclin E1 and against CDK1/Cyclin B1 were 1.06 µM and 7.26 µM, respectively.

As for `Cc1cc(Nc2cc([C@@H]3CC[C@H](OC(=O)NC(C)C)C3)[nH]n2)cc2c1N(C)S(=O)(=O)C2` (relative stereo) [Example 245, cis-3-(3-((1,7-dimethyl-2,2-dioxido-1,3-dihydrobenzo[c]isothiazol-5-yl)amino)-1H-pyrazol-5-yl)cyclopentyl isopropylcarbamate], the IC50 worked out at 0.044 µM at CDK2/Cyclin E1 and 0.941 µM against CDK1/Cyclin B1.

As for `CCCNC(=O)O[C@H]1CC[C@@H](c2cc(Nc3ccc4c(c3)CCS(=O)(=O)N4)n[nH]2)C1` (relative stereo) [Example 247, cis-3-(3-((2,2-dioxido-3,4-dihydro-1H-benzo[c][1,2]thiazin-6-yl)amino)-1H-pyrazol-5-yl)cyclopentyl propylcarbamate], the half-maximal inhibitory concentration (IC50) at CDK2/Cyclin E1 worked out at 0.0097 µM; on CDK1/Cyclin B1, 0.079 µM.

Regarding `CC[C@H](C)NC(=O)O[C@H]1CC[C@@H](c2cc(Nc3ccc4c(c3)CCS(=O)(=O)N4)n[nH]2)C1` (relative stereo) [Example 248, cis-3-(3-((2,2-dioxido-3,4-dihydro-1H-benzo[c][1,2]thiazin-6-yl)amino)-1H-pyrazol-5-yl)cyclopentyl((S)-sec-butyl)carbamate], the concentration for half-maximal inhibition (IC50) against CDK2/Cyclin E1 amounted to 0.0026 µM; at CDK1/Cyclin B1, 0.049 µM.

As for `CC(C)NC(=O)O[C@H]1CC[C@@H](c2cc(Nc3ccc4c(c3)CCS(=O)(=O)N4C)n[nH]2)C1` (relative stereo) [Example 250, cis-3-(3-((1-methyl-2,2-dioxido-3,4-dihydro-1H-benzo[c][1,2]thiazin-6-yl)amino)-1H-pyrazol-5-yl)cyclopentyl isopropylcarbamate], the IC50 worked out at 0.0021 µM against CDK2/Cyclin E1 and 0.03 µM against CDK1/Cyclin B1.

Regarding `COCCN1c2ccc(Nc3cc([C@@H]4CC[C@H](OC(=O)NC(C)C)C4)[nH]n3)c(F)c2CS1(=O)=O` (relative stereo) [Example 252, cis-3-(3-((4-fluoro-1-(2-methoxyethyl)-2,2-dioxido-1,3-dihydrobenzo[c]isothiazol-5-yl)cyclopentyl isopropylcarbamate], the IC50 against CDK2/Cyclin E1 was 0.0038 µM; against CDK1/Cyclin B1, 0.079 µM.

With `CC(C)NC(=O)O[C@H]1CC[C@@H](c2cc(Nc3ccc4c(c3F)C(CCO)S(=O)(=O)N4CCO)n[nH]2)C1` (relative stereo) [Example 253, cis-3-(3-((4-fluoro-1,3-bis(2-hydroxyethyl)-2,2-dioxido-1,3-dihydrobenzo[c]isothiazol-5-yl)amino)-1H-pyrazol-5-yl)cyclopentyl isopropylcarbamate], the results for the IC50 against CDK2/Cyclin E1 and at CDK1/Cyclin B1 were 0.0043 µM and 0.096 µM, respectively.

Regarding `CN1c2ccc(Nc3cc([C@@H]4CC[C@H](OC(=O)NC5(C)CC5)C4)[nH]n3)c(F)c2CS1(=O)=O` (relative stereo) [Example 257, cis-3-(3-((4-fluoro-1-methyl-2,2-dioxido-1,3-dihydrobenzo[c]isothiazol-5-yl)amino)-1H-pyrazol-5-yl)cyclopentyl(1-methylcyclopropyl)carbamate], the concentration for half-maximal inhibition (IC50) amounted to 0.0015 µM against CDK2/Cyclin E1 and 0.033 µM against CDK1/Cyclin B1.

As to `CC[C@H](C)NC(=O)O[C@H]1CC[C@@H](c2cc(Nc3ccc4c(c3F)CS(=O)(=O)N4C)n[nH]2)C1` (relative stereo) [Example 258, cis-3-(3-((4-fluoro-1-methyl-2,2-dioxido-1,3-dihydrobenzo[c]isothiazol-5-yl)amino)-1H-pyrazol-5-yl)cyclopentyl((S)-sec-butyl)carbamate], the IC50 on CDK2/Cyclin E1 was 0.0015 µM; against CDK1/Cyclin B1, 0.037 µM.

As for `CC1(NC(=O)O[C@H]2CC[C@@H](c3cc(Nc4ccc5c(c4F)CS(=O)(=O)N5C4COC4)n[nH]3)C2)CC1` (relative stereo) [Example 262, cis-3-(3-((4-fluoro-1-(oxetan-3-yl)-2,2-dioxido-1,3-dihydrobenzo[c]isothiazol-5-yl)amino)-1H-pyrazol-5-yl)cyclopentyl(1-methylcyclopropyl)carbamate], the IC50 on CDK2/Cyclin E1 turned out to be 0.0013 µM; against CDK1/Cyclin B1 it was 0.033 µM.

With `[2H]C([2H])([2H])N1c2ccc(Nc3cc([C@@H]4CC[C@H](OC(=O)N[C@@H](C)CC)C4)[nH]n3)c(F)c2CS1(=O)=O` (relative stereo) [Example 269, cis-3-(3-((4-fluoro-1-(methyl-d3)-2,2-dioxido-1,3-dihydrobenzo[c]isothiazol-5-yl)amino)-1H-pyrazol-5-yl)cyclopentyl((S)-sec-butyl)carbamate], the values for the IC50 on CDK2/Cyclin E1 and against CDK1/Cyclin B1 were 0.0056 µM and 0.061 µM, respectively.

With `[2H]C([2H])([2H])N1c2ccc(Nc3cc([C@@H]4CC[C@H](OC(=O)NC5(C)CC5)C4)[nH]n3)c(F)c2CS1(=O)=O` (relative stereo) [Example 270, cis-3-(3-((4-fluoro-1-(methyl-d3)-2,2-dioxido-1,3-dihydrobenzo[c]isothiazol-5-yl)amino)-1H-pyrazol-5-yl)cyclopentyl(1-methylcyclopropyl)carbamate], the IC50 on CDK2/Cyclin E1 came out at 0.0017 µM; against CDK1/Cyclin B1, 0.037 µM.

As for `CC[C@H](C)NC(=O)O[C@H]1CC[C@@H](c2cc(Nc3ccc4c(c3F)CS(=O)(=O)N4CCO)n[nH]2)C1` (relative stereo) [Example 273, cis-3-(3-((4-fluoro-1-(2-hydroxyethyl)-2,2-dioxido-1,3-dihydrobenzo[c]isothiazol-5-yl)amino)-1H-pyrazol-5-yl)cyclopentyl((S)-sec-butyl)carbamate], the figures for the IC50 on CDK2/Cyclin E1 and against CDK1/Cyclin B1 were 0.0025 µM and 0.043 µM, respectively.

Take `CC1(NC(=O)O[C@H]2CC[C@@H](c3cc(Nc4ccc5c(c4F)CS(=O)(=O)N5CCO)n[nH]3)C2)CC1` (relative stereo) [Example 274, cis-3-(3-((4-fluoro-1-(2-hydroxyethyl)-2,2-dioxido-1,3-dihydrobenzo[c]isothiazol-5-yl)amino)-1H-pyrazol-5-yl)cyclopentyl(1-methylcyclopropyl)carbamate]: the half-maximal inhibitory concentration (IC50) was found to be 0.001 µM on CDK2/Cyclin E1 and 0.022 µM on CDK1/Cyclin B1.

Turning to `CCCNC(=O)O[C@H]1CC[C@@H](c2cc(Nc3ccc4c(c3F)CS(=O)(=O)N4C3CC3)n[nH]2)C1` (relative stereo) [Example 276, cis-3-(3-((1-cyclopropyl-4-fluoro-2,2-dioxido-1,3-dihydrobenzo[c]isothiazol-5-yl)amino)-1H-pyrazol-5-yl)cyclopentyl propylcarbamate], the 50% inhibitory concentration (IC50) worked out at 0.005 µM against CDK2/Cyclin E1 and 0.111 µM against CDK1/Cyclin B1.

Take `CC1(NC(=O)O[C@H]2CC[C@@H](c3cc(Nc4ccc5c(c4F)CS(=O)(=O)N5C4CC4)n[nH]3)C2)CC1` (relative stereo) [Example 277, cis-3-(3-((1-cyclopropyl-4-fluoro-2,2-dioxido-1,3-dihydrobenzo[c]isothiazol-5-yl)amino)-1H-pyrazol-5-yl)cyclopentyl(1-methylcyclopropyl)carbamate]: the IC50 at CDK2/Cyclin E1 amounted to 0.0017 µM; against CDK1/Cyclin B1, 0.036 µM.

Take `CC[C@H](C)NC(=O)O[C@H]1CC[C@@H](c2cc(Nc3ccc4c(c3F)CS(=O)(=O)N4C3CC3)n[nH]2)C1` (relative stereo) [Example 278, cis-3-(3-((1-cyclopropyl-4-fluoro-2,2-dioxido-1,3-dihydrobenzo[c]isothiazol-5-yl)amino)-1H-pyrazol-5-yl)cyclopentyl((S)-sec-butyl)carbamate]: the values for the IC50 on CDK2/Cyclin E1 and against CDK1/Cyclin B1 were 0.0013 µM and 0.056 µM, respectively.

With `CC(C)NC(=O)O[C@H]1CC[C@@H](c2cc(Nc3cc(F)c4c(c3)CS(=O)(=O)N4)n[nH]2)C1` (relative stereo) [Example 279, cis-3-(3-((7-fluoro-2,2-dioxido-1,3-dihydrobenzo[c]isothiazol-5-yl)amino)-1H-pyrazol-5-yl)cyclopentyl isopropylcarbamate], the 50% inhibitory concentration (IC50) was found to be 0.0007 µM at CDK2/Cyclin E1 and 0.043 µM on CDK1/Cyclin B1.

Take `CC(C)NC(=O)O[C@H]1CC[C@@H](c2cc(Nc3cc(F)c4c(c3)CS(=O)(=O)N4C)n[nH]2)C1` (relative stereo) [Example 280, cis-3-(3-((7-fluoro-1-methyl-2,2-dioxido-1,3-dihydrobenzo[c]isothiazol-5-yl)amino)-1H-pyrazol-5-yl)cyclopentyl isopropylcarbamate]: the IC50 against CDK2/Cyclin E1 worked out at 0.01 µM; on CDK1/Cyclin B1 it was 0.149 µM.
